Test results published in patent US20190031717A1, “MULTI-FUNCTIONAL FUSION POLYPEPTIDE, PREPARATION METHOD THEREOF, AND APPLICATION OF SAME” (NANJING ANJI BIOLOGICAL TECHNOLOGY CO., LTD, priority 2016, published 2019).

tested on: pneumonia fungi; assay: Mouse pneumonia model, fungal; format: in vivo, BALB/C mice; design: concentration or dose not given beside the values; settings: mean ± SD
Procedure: (§1) The mouse pneumonia model was successfully established by the nose-drop method. To build the mouse pneumonia model, BALB/C mice with a body mass of 16-22 g were selected and anesthetized pneumonia chain was prepared after anesthesia with ether on day 0, day 1, and day 2. Staphylococcal fluid, adenovirus concentrate, Mycoplasma pneumoniae, Chlamydia pneumoniae, protozoa, and pneumonia fungi were slowly dripped into the nasal cavity of the mice, so that they enter the tracheobronchial. During the operation process, care was exercised to prevent bacterial fluid from flowing into the esophagus, which leads to inactivation the bacterial fluid. After successful model establishment, the polypeptides of the present invention were administered, and the results were shown in Table 5. […] The results were expressed in average value±standard deviation.

Substance	Inhibitory Effects on Various Pulmonary Infections
Ile-Val-Arg-Arg-Ala-Asp-Arg-Ala-Ala-Val-Pro-Gly-Gly-Gly-Gly-Pro-(D-Pyr)-(D-Cys)-Bip-Arg-Gly-Glu-Gly-Gly-Gly-Gly-Arg-Gly-Asp [Polypeptide II]	57.52 ± 16.39%

tested on: Pneumonia caused by lung infection; assay: Mouse pneumonia model, pneumonia caused by lung infection; format: in vivo, BALB/C mice; design: concentration or dose not given beside the values; settings: mean ± SD
Procedure: as §1

Substance	Inhibitory Effects on Various Pulmonary Infections
Ile-Val-Arg-Arg-Ala-Asp-Arg-Ala-Ala-Val-Pro-Gly-Gly-Gly-Gly-Pro-(D-Pyr)-(D-Cys)-Bip-Arg-Gly-Glu-Gly-Gly-Gly-Gly-Arg-Gly-Asp [Polypeptide II]	50.81 ± 14.48%

tested on: adenovirus concentrate; assay: Mouse pneumonia model, viral; format: in vivo, BALB/C mice; settings: mean ± SD
Procedure: as §1

Substance	Inhibitory Effects on Various Pulmonary Infections
Ile-Val-Arg-Arg-Ala-Asp-Arg-Ala-Ala-Val-Pro-Gly-Gly-Gly-Gly-Pro-(D-Pyr)-(D-Cys)-Bip-Arg-Gly-Glu-Gly-Gly-Gly-Gly-Arg-Gly-Asp [Polypeptide II]	57.35 ± 16.34%

tested on: Chlamydia pneumoniae; assay: Mouse pneumonia model, chlamydia; format: in vivo, BALB/C mice; design: concentration or dose not given beside the values; settings: mean ± SD
Procedure: as §1

Substance	Inhibitory Effects on Various Pulmonary Infections
Ile-Val-Arg-Arg-Ala-Asp-Arg-Ala-Ala-Val-Pro-Gly-Gly-Gly-Gly-Pro-(D-Pyr)-(D-Cys)-Bip-Arg-Gly-Glu-Gly-Gly-Gly-Gly-Arg-Gly-Asp [Polypeptide II]	46.02 ± 13.12%

tested on: Uterine cancer; assay: MTT assay, tumor cells; format: cell-based, human; design: concentration or dose not given beside the values; settings: 48 hours, mean ± SD
Procedure: (§2) A variety of human tumor cells were cultured in a 37° C., 5% (volume fraction) CO2 incubator to a density of 90% or more, collected by trypsinization, resuspended in a culture medium and counted under a microscope, and the cells were harvested. The concentration was adjusted to 2.0×10^4 cells/mL, the cell suspension was inoculated into a 96-well plate at 100 μL per well and cultured overnight at 37° C. in a 5% (volume fraction) CO2 incubator. After the cells were completely adhered, the polypeptides of the present invention were added as drug-administered groups, and a culture solution containing no drug was used as a blank control group, and the culture solution was diluted to each predetermined concentration. Each dilution was separately added to a 96-well plate at 100 μL per well and incubated for 48 hours at 37° C. in a 5% (volume fraction) CO2 incubator. 20 μL of 5 mg/mL MTT was added to each well of a 96-well plate and incubation was continued for 4 h. The medium was aspirated and dissolved in 100 μL of DMSO per well. The absorbance was measured with a microplate reader at a detection wavelength of 570 nm and a reference wavelength of 630 nm, and the growth inhibition rate was calculated as follows: tumor growth inhibition rate (%)=(1−absorbance value of the administered group/unadministered group absorbance value)×100%, and the experiment was repeated 3 times independently. The results obtained from the test were expressed as mean±standard deviation, and the tumor growth inhibition rate of the unadministered group was 0. The results in Table 7 indicate that the polypeptides of the present invention have a significant inhibitory effect on the growth of various tumors (FIG. 6).

Substance	tumor growth inhibition rate, MTT Assay
Ile-Val-Arg-Arg-Ala-Asp-Arg-Ala-Ala-Val-Pro-Gly-Gly-Gly-Gly-Pro-(D-Pyr)-(D-Cys)-Bip-Arg-Gly-Glu-Gly-Gly-Gly-Gly-Arg-Gly-Asp [Polypeptide II]	64.54 ± 21.82%

tested on: Pancreatic cancer; assay: MTT assay, tumor cells; format: cell-based, human; design: concentration or dose not given beside the values; settings: 48 hours, mean ± SD
Procedure: as §2

Substance	tumor growth inhibition rate, MTT Assay
Ile-Val-Arg-Arg-Ala-Asp-Arg-Ala-Ala-Val-Pro-Gly-Gly-Gly-Gly-Pro-(D-Pyr)-(D-Cys)-Bip-Arg-Gly-Glu-Gly-Gly-Gly-Gly-Arg-Gly-Asp [Polypeptide II]	71.93 ± 20.82%

tested on: Brain tumor; assay: MTT assay, tumor cells; format: cell-based, human; design: concentration or dose not given beside the values; settings: 48 hours, mean ± SD
Procedure: as §2

Substance	tumor growth inhibition rate, MTT Assay
Ile-Val-Arg-Arg-Ala-Asp-Arg-Ala-Ala-Val-Pro-Gly-Gly-Gly-Gly-Pro-(D-Pyr)-(D-Cys)-Bip-Arg-Gly-Glu-Gly-Gly-Gly-Gly-Arg-Gly-Asp [Polypeptide II]	66.81 ± 15.87%

tested on: Melanoma; assay: MTT assay, tumor cells; format: cell-based, human; design: concentration or dose not given beside the values; settings: 48 hours, mean ± SD
Procedure: as §2

Substance	tumor growth inhibition rate, MTT Assay
Ile-Val-Arg-Arg-Ala-Asp-Arg-Ala-Ala-Val-Pro-Gly-Gly-Gly-Gly-Pro-(D-Pyr)-(D-Cys)-Bip-Arg-Gly-Glu-Gly-Gly-Gly-Gly-Arg-Gly-Asp [Polypeptide II]	55.55 ± 13.19%

tested on: Prostate cancer; assay: MTT assay, tumor cells; format: cell-based, human; design: concentration or dose not given beside the values; settings: 48 hours, mean ± SD
Procedure: as §2

Substance	tumor growth inhibition rate, MTT Assay
Ile-Val-Arg-Arg-Ala-Asp-Arg-Ala-Ala-Val-Pro-Gly-Gly-Gly-Gly-Pro-(D-Pyr)-(D-Cys)-Bip-Arg-Gly-Glu-Gly-Gly-Gly-Gly-Arg-Gly-Asp [Polypeptide II]	78.96 ± 22.49%

tested on: Kidney cancer; assay: MTT assay, tumor cells; format: cell-based, human; design: concentration or dose not given beside the values; settings: 48 hours, mean ± SD
Procedure: as §2

Substance	tumor growth inhibition rate, MTT Assay
Ile-Val-Arg-Arg-Ala-Asp-Arg-Ala-Ala-Val-Pro-Gly-Gly-Gly-Gly-Pro-(D-Pyr)-(D-Cys)-Bip-Arg-Gly-Glu-Gly-Gly-Gly-Gly-Arg-Gly-Asp [Polypeptide II]	58.56 ± 17.64%

tested on: Liver cancer; assay: MTT assay, tumor cells; format: cell-based, human; design: concentration or dose not given beside the values; settings: 48 hours, mean ± SD
Procedure: as §2

Substance	tumor growth inhibition rate, MTT Assay
Ile-Val-Arg-Arg-Ala-Asp-Arg-Ala-Ala-Val-Pro-Gly-Gly-Gly-Gly-Pro-(D-Pyr)-(D-Cys)-Bip-Arg-Gly-Glu-Gly-Gly-Gly-Gly-Arg-Gly-Asp [Polypeptide II]	71.24 ± 16.92%

tested on: Bladder Cancer; assay: MTT assay, tumor cells; format: cell-based, human; design: concentration or dose not given beside the values; settings: 48 hours, mean ± SD
Procedure: as §2

Substance	tumor growth inhibition rate, MTT Assay
Ile-Val-Arg-Arg-Ala-Asp-Arg-Ala-Ala-Val-Pro-Gly-Gly-Gly-Gly-Pro-(D-Pyr)-(D-Cys)-Bip-Arg-Gly-Glu-Gly-Gly-Gly-Gly-Arg-Gly-Asp [Polypeptide II]	50.68 ± 12.04%

tested on: Thyroid cancer; assay: MTT assay, tumor cells; format: cell-based, human; design: concentration or dose not given beside the values; settings: 48 hours, mean ± SD
Procedure: as §2

Substance	tumor growth inhibition rate, MTT Assay
Ile-Val-Arg-Arg-Ala-Asp-Arg-Ala-Ala-Val-Pro-Gly-Gly-Gly-Gly-Pro-(D-Pyr)-(D-Cys)-Bip-Arg-Gly-Glu-Gly-Gly-Gly-Gly-Arg-Gly-Asp [Polypeptide II]	61.18 ± 14.53%

tested on: Head and neck cancer; assay: MTT assay, tumor cells; format: cell-based, human; design: concentration or dose not given beside the values; settings: 48 hours, mean ± SD
Procedure: as §2

Substance	tumor growth inhibition rate, MTT Assay
Ile-Val-Arg-Arg-Ala-Asp-Arg-Ala-Ala-Val-Pro-Gly-Gly-Gly-Gly-Pro-(D-Pyr)-(D-Cys)-Bip-Arg-Gly-Glu-Gly-Gly-Gly-Gly-Arg-Gly-Asp [Polypeptide II]	47.44 ± 11.27%

tested on: Breast cancer; assay: MTT assay, tumor cells; format: cell-based, human; design: concentration or dose not given beside the values; settings: 48 hours, mean ± SD
Procedure: as §2

Substance	tumor growth inhibition rate, MTT Assay
Ile-Val-Arg-Arg-Ala-Asp-Arg-Ala-Ala-Val-Pro-Gly-Gly-Gly-Gly-Pro-(D-Pyr)-(D-Cys)-Bip-Arg-Gly-Glu-Gly-Gly-Gly-Gly-Arg-Gly-Asp [Polypeptide II]	89.43 ± 21.24%

tested on: Esophageal cancer; assay: MTT assay, tumor cells; format: cell-based, human; design: concentration or dose not given beside the values; settings: 48 hours, mean ± SD
Procedure: as §2

Substance	tumor growth inhibition rate, MTT Assay
Ile-Val-Arg-Arg-Ala-Asp-Arg-Ala-Ala-Val-Pro-Gly-Gly-Gly-Gly-Pro-(D-Pyr)-(D-Cys)-Bip-Arg-Gly-Glu-Gly-Gly-Gly-Gly-Arg-Gly-Asp [Polypeptide II]	64.28 ± 15.27%

tested on: sarcoma; assay: MTT assay, tumor cells; format: cell-based, human; design: concentration or dose not given beside the values; settings: 48 hours, mean ± SD
Procedure: as §2

Substance	tumor growth inhibition rate, MTT Assay
Ile-Val-Arg-Arg-Ala-Asp-Arg-Ala-Ala-Val-Pro-Gly-Gly-Gly-Gly-Pro-(D-Pyr)-(D-Cys)-Bip-Arg-Gly-Glu-Gly-Gly-Gly-Gly-Arg-Gly-Asp [Polypeptide II]	64.42 ± 15.30%

tested on: Ovarian cancer; assay: MTT assay, tumor cells; format: cell-based, human; design: concentration or dose not given beside the values; settings: 48 hours, mean ± SD
Procedure: as §2

Substance	tumor growth inhibition rate, MTT Assay
Ile-Val-Arg-Arg-Ala-Asp-Arg-Ala-Ala-Val-Pro-Gly-Gly-Gly-Gly-Pro-(D-Pyr)-(D-Cys)-Bip-Arg-Gly-Glu-Gly-Gly-Gly-Gly-Arg-Gly-Asp [Polypeptide II]	88.74 ± 21.07%

tested on: Cervical cancer; assay: MTT assay, tumor cells; format: cell-based, human; design: concentration or dose not given beside the values; settings: 48 hours, mean ± SD
Procedure: as §2

Substance	tumor growth inhibition rate, MTT Assay
Ile-Val-Arg-Arg-Ala-Asp-Arg-Ala-Ala-Val-Pro-Gly-Gly-Gly-Gly-Pro-(D-Pyr)-(D-Cys)-Bip-Arg-Gly-Glu-Gly-Gly-Gly-Gly-Arg-Gly-Asp [Polypeptide II]	62.34 ± 24.94%

tested on: Colorectal cancer; assay: MTT assay, tumor cells; format: cell-based, human; design: concentration or dose not given beside the values; settings: 48 hours, mean ± SD
Procedure: as §2

Substance	tumor growth inhibition rate, MTT Assay
Ile-Val-Arg-Arg-Ala-Asp-Arg-Ala-Ala-Val-Pro-Gly-Gly-Gly-Gly-Pro-(D-Pyr)-(D-Cys)-Bip-Arg-Gly-Glu-Gly-Gly-Gly-Gly-Arg-Gly-Asp [Polypeptide II]	83.25 ± 19.77%

tested on: Hemangioma; assay: MTT assay, tumor cells; format: cell-based, human; design: concentration or dose not given beside the values; settings: 48 hours, mean ± SD
Procedure: as §2

Substance	tumor growth inhibition rate, MTT Assay
Ile-Val-Arg-Arg-Ala-Asp-Arg-Ala-Ala-Val-Pro-Gly-Gly-Gly-Gly-Pro-(D-Pyr)-(D-Cys)-Bip-Arg-Gly-Glu-Gly-Gly-Gly-Gly-Arg-Gly-Asp [Polypeptide II]	84.45 ± 23.67%

tested on: Gastric cancer; assay: MTT assay, tumor cells; format: cell-based, human; design: concentration or dose not given beside the values; settings: 48 hours, mean ± SD
Procedure: as §2

Substance	tumor growth inhibition rate, MTT Assay
Ile-Val-Arg-Arg-Ala-Asp-Arg-Ala-Ala-Val-Pro-Gly-Gly-Gly-Gly-Pro-(D-Pyr)-(D-Cys)-Bip-Arg-Gly-Glu-Gly-Gly-Gly-Gly-Arg-Gly-Asp [Polypeptide II]	63.41 ± 18.79%

tested on: Staphylococcal fluid; assay: Mouse pneumonia model, bacterial; format: in vivo, BALB/C mice; design: concentration or dose not given beside the values; settings: mean ± SD
Procedure: as §1

Substance	Inhibitory Effects on Various Pulmonary Infections
Ile-Val-Arg-Arg-Ala-Asp-Arg-Ala-Ala-Val-Pro-Gly-Gly-Gly-Gly-Pro-(D-Pyr)-(D-Cys)-Bip-Arg-Gly-Glu-Gly-Gly-Gly-Gly-Arg-Gly-Asp [Polypeptide II]	43.43 ± 12.38%

tested on: Mycoplasma pneumoniae; assay: Mouse pneumonia model, mycoplasma; format: in vivo, BALB/C mice; design: concentration or dose not given beside the values; settings: mean ± SD
Procedure: as §1

Substance	Inhibitory Effects on Various Pulmonary Infections
Ile-Val-Arg-Arg-Ala-Asp-Arg-Ala-Ala-Val-Pro-Gly-Gly-Gly-Gly-Pro-(D-Pyr)-(D-Cys)-Bip-Arg-Gly-Glu-Gly-Gly-Gly-Gly-Arg-Gly-Asp [Polypeptide II]	39.16 ± 11.16%

tested on: protozoa; assay: Mouse pneumonia model, protozoal; format: in vivo, BALB/C mice; design: concentration or dose not given beside the values; settings: mean ± SD
Procedure: as §1

Substance	Inhibitory Effects on Various Pulmonary Infections
Ile-Val-Arg-Arg-Ala-Asp-Arg-Ala-Ala-Val-Pro-Gly-Gly-Gly-Gly-Pro-(D-Pyr)-(D-Cys)-Bip-Arg-Gly-Glu-Gly-Gly-Gly-Gly-Arg-Gly-Asp [Polypeptide II]	60.59 ± 17.27%
